Reference: patent US20210221794A1, “ISATIN DERIVATIVES” (KING SAUD UNIVERSITY, priority 2020, published 2021)

Experiments:
Format in all cases: cell-based, Human
Conditions in all cases: concentration 10-M [sic], 2 days after addition
[1] = test system: Non-Small Cell Lung Cancer cells (EKVX); test: NCI-60 one-dose screen, Non-Small Cell Lung Cancer cells (EKVX)
Experimental: (§1) Anticancer activities of the exemplary isatin derivatives were tested by the NIH National Cancer Institutes (NCI), with results summarized in FIGS. 2A-2B. The anticancer activity was tested by NCI, division of cancer treatment and diagnosis, according to the NCI-60 Human Tumor Cell Lines Screen, one-dose screen (https://dtp.cancer.gov/discovery_development/nci-60/methodology.htm). This screening allows for qualified synthesized chemicals to be subjected to an anticancer test against 60 different cancer cell lines. Briefly, exemplary T1 or T2 was dissolved in DMSO:Glycerol, 9:1, at 4 mmol and kept frozen prior to use. For inoculation, a 96 well microtiter was used for the study of different cell lines. Based on the doubling time for each cell line, the well density varied. The plates were incubated at 37° C., 5% CO2, 95% air and 100% relative humidity for 1 day. The exemplary T1 or T2 or a control were added to the plates at a concentration of 10-M. After 2 more days, the plates were fixed and stained to identify growth inhibition relative to cells without drug treatment. Anti-proliferative activity was determined based on careful analysis of historical DTP screening data. Cell death and net growth inhibition were determined based on a time zero control. A value of 100 indicates no growth inhibition. A value of 40 indicates 60% growth inhibition. […]

[2] = test system: Colon Cancer cells (KM12); test: NCI-60 one-dose screen, Colon Cancer cells (KM12)
Experimental: as §1

[3] = test system: Ovarian Cancer cells (IGROV1); test: NCI-60 one-dose screen, Ovarian Cancer cells (IGROV1)
Experimental: as §1

[4] = test system: Renal Cancer cells (CAKI-1); test: NCI-60 one-dose screen, Renal Cancer cells (CAKI-1)
Experimental: as §1

[5] = test system: Renal Cancer cells (UO-31); test: NCI-60 one-dose screen, Renal Cancer cells (UO-31)
Experimental: as §1

[6] = test system: Breast Cancer cells (HS 578T); test: NCI-60 one-dose screen, Breast Cancer cells (HS 578T)
Experimental: as §1

SMILES | reduction compared to control (anticancer activity) [1] | reduction compared to control (anticancer activity) [2] | reduction compared to control (anticancer activity) [3] | reduction compared to control (anticancer activity) [4] | reduction compared to control (anticancer activity) [5] | reduction compared to control (anticancer activity) [6]
O=C1Nc2ccccc2C1=NN=Cc1c[nH]c2ccccc12 [T1] | ~79% | ~72% | ~65% | ~83% | ~74% | ~85%
O=C1Nc2ccc(Cl)cc2C1=NN=Cc1c[nH]c2ccccc12 [T2] | ~77% | – | – | ~71% | ~59% | ~78%
